Data from PMC11684029, “Discovery of VU6024578/BI02982816: An mGlu1 Positive Allosteric Modulator with Efficacy in Preclinical Antipsychotic and Cognition Models” (Journal of Medicinal Chemistry, 2024).
pEC50: −log10 of the molar value.

Assays:
mGlu1 = mGlu1 (Mus musculus, UniProt P97772); assay: mGlu1 PAM assay, mouse receptor; type: cell-based; details: n = 5
Experimental: Over the course of the mGlu1 PAM program, 19d became an assay standard and was assayed multiple times, affording refined potency values.[20]

Adrenergic beta 2 = molecular target: T1, Adrenergic beta 2 (Homo sapiens, UniProt P07550); assay: Eurofins radioligand binding panel; details: antagonist radioligand
T1 construct: Eurofins
From the text: (§1) Table S1. Eurofins Lead Profiling Screen Data
(§2) This is a radioligand binding panel of 80 targets including GPCRs, ion channels, transporters and nuclear hormones. Biochemical assay results are presented as the percent inhibition of specific […]
(§3) Results showing an inhibition or stimulation higher than 50% are considered to represent significant effect and are highlighted […]
(§4) Target / Protein Species % Inhibition at 10 […]

Adenosine A3 = molecular target: T2, Adenosine A3 (Homo sapiens, UniProt P0DMS8); assay: Eurofins radioligand binding panel; details: agonist radioligand
T2 construct: Eurofins
From the text: as §1, §2, §3, §4

CCK1 (CCKA) = molecular target: T3, CCK1 (CCKA) (Homo sapiens, UniProt P32238); assay: Eurofins radioligand binding panel; details: agonist radioligand
T3 construct: Eurofins (panel run as a service)
From the text: as §1, §2, §3, §4

BZD (peripheral) = molecular target: T4, BZD (peripheral) (Rattus norvegicus, UniProt P16257); assay: Eurofins radioligand binding panel; details: antagonist radioligand
T4 construct: Eurofins (panel run as a service)
From the text: as §1, §2, §3, §4

CB1 = molecular target: T5, CB1 (Homo sapiens, UniProt P21554); assay: Eurofins radioligand binding panel; details: agonist radioligand
T5 construct: Eurofins (panel run as a service)
T5 sequence (P21554 whole entry): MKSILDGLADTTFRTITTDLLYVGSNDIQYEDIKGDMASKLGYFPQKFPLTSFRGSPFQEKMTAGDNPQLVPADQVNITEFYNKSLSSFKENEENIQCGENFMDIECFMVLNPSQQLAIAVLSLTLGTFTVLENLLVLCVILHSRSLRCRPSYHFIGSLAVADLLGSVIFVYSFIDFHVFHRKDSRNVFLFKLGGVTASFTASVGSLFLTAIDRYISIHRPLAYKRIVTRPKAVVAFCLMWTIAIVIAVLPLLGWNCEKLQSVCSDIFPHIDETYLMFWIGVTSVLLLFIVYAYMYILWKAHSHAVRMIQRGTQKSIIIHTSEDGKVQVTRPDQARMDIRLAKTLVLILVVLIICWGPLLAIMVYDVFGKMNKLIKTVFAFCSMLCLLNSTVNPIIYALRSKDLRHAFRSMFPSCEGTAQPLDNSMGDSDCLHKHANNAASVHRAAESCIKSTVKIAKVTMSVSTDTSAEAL
From the text: as §1, §2, §3, §4

Adenosine A2A = molecular target: T6, Adenosine A2A (Homo sapiens, UniProt P29274); assay: Eurofins radioligand binding panel; details: agonist radioligand
T6 construct: Eurofins
From the text: as §1, §2, §3, §4

Adrenergic beta 1 = molecular target: T7, Adrenergic beta 1 (Homo sapiens, UniProt P08588); assay: Eurofins radioligand binding panel; details: agonist radioligand
T7 construct: Eurofins
T7 sequence (P08588 whole entry): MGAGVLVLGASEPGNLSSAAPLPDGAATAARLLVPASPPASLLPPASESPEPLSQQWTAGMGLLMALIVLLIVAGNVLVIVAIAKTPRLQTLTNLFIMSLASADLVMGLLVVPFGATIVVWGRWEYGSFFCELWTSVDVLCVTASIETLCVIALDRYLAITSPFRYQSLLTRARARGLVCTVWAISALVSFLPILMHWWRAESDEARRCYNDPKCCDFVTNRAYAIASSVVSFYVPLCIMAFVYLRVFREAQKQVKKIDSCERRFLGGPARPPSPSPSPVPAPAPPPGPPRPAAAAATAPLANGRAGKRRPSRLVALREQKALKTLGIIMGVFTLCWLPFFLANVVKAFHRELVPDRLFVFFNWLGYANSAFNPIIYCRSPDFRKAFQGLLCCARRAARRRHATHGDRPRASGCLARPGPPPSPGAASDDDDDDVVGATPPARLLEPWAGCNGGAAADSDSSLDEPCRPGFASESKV
From the text: as §1, §2, §3, §4

AT2 = molecular target: T8, AT2 (Homo sapiens, UniProt P50052); assay: Eurofins radioligand binding panel; details: agonist radioligand
T8 construct: Eurofins (panel run as a service)
From the text: as §1, §2, §3, §4

AT1 = molecular target: T9, AT1 (Homo sapiens, UniProt P30556); assay: Eurofins radioligand binding panel; details: antagonist radioligand
T9 construct: Eurofins
From the text: as §1, §2, §3, §4

BZD (central) = assay: Eurofins radioligand binding panel; details: agonist radioligand
From the text: as §1, §2, §3, §4

B2 = molecular target: T10, B2 (Homo sapiens, UniProt P30411); assay: Eurofins radioligand binding panel; details: agonist radioligand
T10 construct: Eurofins (panel run as a service)
From the text: as §1, §2, §3, §4

CGRP = molecular target: T11, CGRP (Homo sapiens, UniProt O60894+Q16602); assay: Eurofins radioligand binding panel; details: agonist radioligand
T11 construct: Eurofins (panel run as a service)
From the text: as §1, §2, §3, §4

rat IP PBL study = type: in vivo; details: 3 mg/kg IP, at Tmax
From the text: Thus, 19d was a stable chemical entity in vivo. […] Overall, the rat PK and CNS penetration was supportive of in vivo work and progression down the development flow-chart.

hydrolytic stability = type: physicochemical
MT1 (ML1A) = molecular target: T12, MT1 (ML1A) (Homo sapiens, UniProt P48039); assay: Eurofins radioligand binding panel; details: agonist radioligand
T12 construct: Eurofins
From the text: as §1, §2
(§5) Results showing an inhibition or stimulation higher than 50% are considered to represent significant effect and are highlighted

NK2 = molecular target: T13, NK2 (Homo sapiens, UniProt P21452); assay: Eurofins radioligand binding panel; details: agonist radioligand
T13 construct: Eurofins
From the text: as §1, §2, §5

NK3 = molecular target: T14, NK3 (Homo sapiens, UniProt P29371); assay: Eurofins radioligand binding panel; details: antagonist radioligand
T14 construct: Eurofins
T14 sequence (P29371 whole entry): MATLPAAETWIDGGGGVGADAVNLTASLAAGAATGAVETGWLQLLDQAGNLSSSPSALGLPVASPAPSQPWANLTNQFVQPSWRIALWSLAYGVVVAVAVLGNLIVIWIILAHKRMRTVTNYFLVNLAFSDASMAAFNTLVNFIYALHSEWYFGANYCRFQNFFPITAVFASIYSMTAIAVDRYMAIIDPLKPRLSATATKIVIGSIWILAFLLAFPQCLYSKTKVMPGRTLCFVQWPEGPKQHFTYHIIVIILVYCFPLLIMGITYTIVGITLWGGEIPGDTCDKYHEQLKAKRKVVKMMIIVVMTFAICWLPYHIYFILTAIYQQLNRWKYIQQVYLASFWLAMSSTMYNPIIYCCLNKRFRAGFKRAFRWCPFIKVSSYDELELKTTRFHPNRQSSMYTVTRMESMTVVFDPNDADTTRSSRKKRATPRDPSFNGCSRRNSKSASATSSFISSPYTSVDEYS
From the text: as §1, §2, §5

5-HT3 = molecular target: T15, 5-HT3 (Homo sapiens, UniProt P46098); assay: Eurofins radioligand binding panel; details: antagonist radioligand
T15 construct: Eurofins
T15 sequence (P46098 24-478): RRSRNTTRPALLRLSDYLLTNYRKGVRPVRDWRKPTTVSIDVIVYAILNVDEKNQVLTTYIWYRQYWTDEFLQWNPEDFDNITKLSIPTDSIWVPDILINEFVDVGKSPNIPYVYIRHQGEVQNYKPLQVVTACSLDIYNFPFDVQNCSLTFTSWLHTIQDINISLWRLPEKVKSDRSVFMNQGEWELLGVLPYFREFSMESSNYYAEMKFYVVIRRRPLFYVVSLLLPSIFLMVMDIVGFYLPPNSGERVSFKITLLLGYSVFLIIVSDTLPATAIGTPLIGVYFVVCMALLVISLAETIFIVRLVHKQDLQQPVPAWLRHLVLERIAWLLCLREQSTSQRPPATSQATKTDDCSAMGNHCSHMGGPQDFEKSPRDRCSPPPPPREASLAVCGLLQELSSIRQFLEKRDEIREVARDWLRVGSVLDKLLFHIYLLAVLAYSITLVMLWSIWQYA
From the text: as §1, §2, §5

D2S = molecular target: T16, D2S (Homo sapiens, UniProt P14416); assay: Eurofins radioligand binding panel; details: antagonist radioligand
T16 construct: Eurofins (panel run as a service)
From the text: as §1, §2, §5

D1 = molecular target: T17, D1 (Homo sapiens, UniProt P21728); assay: Eurofins radioligand binding panel; details: antagonist radioligand
T17 construct: Eurofins (panel run as a service)
T17 sequence (P21728 whole entry): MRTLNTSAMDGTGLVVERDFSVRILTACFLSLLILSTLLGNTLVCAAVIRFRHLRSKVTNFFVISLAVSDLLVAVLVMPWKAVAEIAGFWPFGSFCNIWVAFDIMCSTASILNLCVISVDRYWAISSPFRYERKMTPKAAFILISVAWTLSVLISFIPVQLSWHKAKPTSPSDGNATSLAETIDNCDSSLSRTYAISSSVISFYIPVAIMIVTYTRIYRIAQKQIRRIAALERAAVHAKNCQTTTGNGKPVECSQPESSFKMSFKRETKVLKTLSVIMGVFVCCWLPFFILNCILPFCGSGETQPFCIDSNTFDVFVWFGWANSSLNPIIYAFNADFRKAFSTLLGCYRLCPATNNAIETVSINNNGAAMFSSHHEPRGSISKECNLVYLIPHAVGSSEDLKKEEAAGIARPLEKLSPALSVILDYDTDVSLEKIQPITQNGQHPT
From the text: as §1, §2, §5

5-HT2A = molecular target: T18, 5-HT2A (Homo sapiens, UniProt P28223); assay: Eurofins radioligand binding panel; details: antagonist radioligand
T18 construct: Eurofins
T18 sequence (P28223 whole entry): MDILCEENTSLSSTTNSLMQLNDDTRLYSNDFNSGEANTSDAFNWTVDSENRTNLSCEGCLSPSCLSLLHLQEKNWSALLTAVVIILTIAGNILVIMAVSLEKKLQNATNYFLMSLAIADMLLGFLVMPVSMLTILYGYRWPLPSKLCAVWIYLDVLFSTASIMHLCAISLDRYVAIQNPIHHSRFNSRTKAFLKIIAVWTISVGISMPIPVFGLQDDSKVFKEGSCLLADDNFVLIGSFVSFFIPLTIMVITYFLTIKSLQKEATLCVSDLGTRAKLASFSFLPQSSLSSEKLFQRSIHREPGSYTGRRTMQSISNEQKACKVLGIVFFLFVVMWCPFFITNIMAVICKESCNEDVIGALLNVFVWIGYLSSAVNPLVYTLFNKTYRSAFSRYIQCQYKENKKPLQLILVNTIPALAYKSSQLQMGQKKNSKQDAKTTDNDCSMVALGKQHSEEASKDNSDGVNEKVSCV
From the text: as §1, §2, §5

CCR1 = molecular target: T19, CCR1 (Homo sapiens, UniProt P32246); assay: Eurofins radioligand binding panel; details: agonist radioligand
T19 construct: Eurofins (panel run as a service)
From the text: as §1, §2, §5

P2X = assay: Eurofins radioligand binding panel; details: agonist radioligand
From the text: as §1, §2, §5

D4.4 = molecular target: T20, D4.4 (Homo sapiens, UniProt P21917); assay: Eurofins radioligand binding panel; details: antagonist radioligand
T20 construct: Eurofins (panel run as a service)
From the text: as §1, §2, §5

GAL2 = molecular target: T21, GAL2 (Homo sapiens, UniProt O43603); assay: Eurofins radioligand binding panel; details: agonist radioligand
T21 construct: Eurofins (panel run as a service)
T21 sequence (O43603 whole entry): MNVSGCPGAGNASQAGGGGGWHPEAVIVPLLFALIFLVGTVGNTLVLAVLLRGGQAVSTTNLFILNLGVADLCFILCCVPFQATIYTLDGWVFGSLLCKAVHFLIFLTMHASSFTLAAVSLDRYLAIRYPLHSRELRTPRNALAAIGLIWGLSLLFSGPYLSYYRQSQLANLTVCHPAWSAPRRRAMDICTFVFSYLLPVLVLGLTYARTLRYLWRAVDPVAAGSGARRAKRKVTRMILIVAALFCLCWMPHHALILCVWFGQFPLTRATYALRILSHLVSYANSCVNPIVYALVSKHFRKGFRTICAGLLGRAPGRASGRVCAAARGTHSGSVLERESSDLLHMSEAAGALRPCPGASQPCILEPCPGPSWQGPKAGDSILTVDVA
From the text: as §1, §2, §5

CXCR2 (IL-8B) = molecular target: T22, CXCR2 (IL-8B) (Homo sapiens, UniProt P25025); assay: Eurofins radioligand binding panel; details: agonist radioligand
T22 construct: Eurofins (panel run as a service)
From the text: as §1, §2, §5

ETB = molecular target: T23, ETB (Homo sapiens, UniProt P24530); assay: Eurofins radioligand binding panel; details: agonist radioligand
T23 construct: Eurofins (panel run as a service)
From the text: as §1, §2, §5

M3 = molecular target: T24, M3 (Homo sapiens, UniProt P20309); assay: Eurofins radioligand binding panel; details: antagonist radioligand
T24 construct: Eurofins
T24 sequence (P20309 whole entry): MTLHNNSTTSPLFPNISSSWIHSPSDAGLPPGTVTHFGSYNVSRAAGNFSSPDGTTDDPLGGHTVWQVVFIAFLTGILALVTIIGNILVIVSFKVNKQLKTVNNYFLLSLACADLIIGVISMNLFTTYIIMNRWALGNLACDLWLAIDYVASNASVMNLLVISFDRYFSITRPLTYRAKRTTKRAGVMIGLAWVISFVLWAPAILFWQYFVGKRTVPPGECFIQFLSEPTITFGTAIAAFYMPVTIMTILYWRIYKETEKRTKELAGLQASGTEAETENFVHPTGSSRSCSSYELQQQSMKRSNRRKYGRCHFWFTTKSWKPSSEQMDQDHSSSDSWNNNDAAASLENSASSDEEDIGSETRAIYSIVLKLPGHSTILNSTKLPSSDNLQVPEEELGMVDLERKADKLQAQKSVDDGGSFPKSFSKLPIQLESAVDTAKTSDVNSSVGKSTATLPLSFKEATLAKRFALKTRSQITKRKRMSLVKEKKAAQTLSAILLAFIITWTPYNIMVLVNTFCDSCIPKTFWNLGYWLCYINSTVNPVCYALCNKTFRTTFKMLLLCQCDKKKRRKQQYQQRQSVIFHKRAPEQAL
From the text: as §1, §2, §5

PAC1 (PACAP) = molecular target: T25, PAC1 (PACAP) (Homo sapiens, UniProt P41586); assay: Eurofins radioligand binding panel; details: agonist radioligand
T25 construct: Eurofins
From the text: as §1, §2, §5

PPARgamma = molecular target: T26, PPARgamma (Homo sapiens, UniProt P37231); assay: Eurofins radioligand binding panel; details: agonist radioligand
T26 construct: Eurofins
From the text: as §1, §2, §5

D5 = molecular target: T27, D5 (Homo sapiens, UniProt P21918); assay: Eurofins radioligand binding panel; details: antagonist radioligand
T27 construct: Eurofins (panel run as a service)
From the text: as §1, §2, §5

5-HT5a = molecular target: T28, 5-HT5a (Homo sapiens, UniProt P47898); assay: Eurofins radioligand binding panel; details: agonist radioligand
T28 construct: Eurofins
From the text: as §1, §2, §5

NTS1 (NT1) = molecular target: T29, NTS1 (NT1) (Homo sapiens, UniProt P30989); assay: Eurofins radioligand binding panel; details: agonist radioligand
T29 construct: Eurofins
From the text: as §1, §2, §5

NK1 = molecular target: T30, NK1 (Homo sapiens, UniProt P25103); assay: Eurofins radioligand binding panel; details: agonist radioligand
T30 construct: Eurofins
From the text: as §1, §2, §5

GAL1 = molecular target: T31, GAL1 (Homo sapiens, UniProt P47211); assay: Eurofins radioligand binding panel; details: agonist radioligand
T31 construct: Eurofins (panel run as a service)
From the text: as §1, §2, §5

M4 = molecular target: T32, M4 (Homo sapiens, UniProt P08173); assay: Eurofins radioligand binding panel; details: antagonist radioligand
T32 construct: Eurofins
From the text: as §1, §2, §5

human P-gp = molecular target: T33, human P-gp (Homo sapiens, UniProt P08183); assay: MDCK-MDR1 permeability/efflux; type: in vitro ADME
T33 construct: expressed in transfected cells; host or cells: MDCK-MDR1

P-gp (MDR1) = molecular target: T34, P-gp (MDR1) (Homo sapiens, UniProt P08183); assay: MDCK-MDR1 permeability/efflux; type: in vitro ADME; details: human
T34 construct: expressed in transfected cells; host or cells: MDCK-MDR1

Sequence of mGlu1 (P97772 21-1199): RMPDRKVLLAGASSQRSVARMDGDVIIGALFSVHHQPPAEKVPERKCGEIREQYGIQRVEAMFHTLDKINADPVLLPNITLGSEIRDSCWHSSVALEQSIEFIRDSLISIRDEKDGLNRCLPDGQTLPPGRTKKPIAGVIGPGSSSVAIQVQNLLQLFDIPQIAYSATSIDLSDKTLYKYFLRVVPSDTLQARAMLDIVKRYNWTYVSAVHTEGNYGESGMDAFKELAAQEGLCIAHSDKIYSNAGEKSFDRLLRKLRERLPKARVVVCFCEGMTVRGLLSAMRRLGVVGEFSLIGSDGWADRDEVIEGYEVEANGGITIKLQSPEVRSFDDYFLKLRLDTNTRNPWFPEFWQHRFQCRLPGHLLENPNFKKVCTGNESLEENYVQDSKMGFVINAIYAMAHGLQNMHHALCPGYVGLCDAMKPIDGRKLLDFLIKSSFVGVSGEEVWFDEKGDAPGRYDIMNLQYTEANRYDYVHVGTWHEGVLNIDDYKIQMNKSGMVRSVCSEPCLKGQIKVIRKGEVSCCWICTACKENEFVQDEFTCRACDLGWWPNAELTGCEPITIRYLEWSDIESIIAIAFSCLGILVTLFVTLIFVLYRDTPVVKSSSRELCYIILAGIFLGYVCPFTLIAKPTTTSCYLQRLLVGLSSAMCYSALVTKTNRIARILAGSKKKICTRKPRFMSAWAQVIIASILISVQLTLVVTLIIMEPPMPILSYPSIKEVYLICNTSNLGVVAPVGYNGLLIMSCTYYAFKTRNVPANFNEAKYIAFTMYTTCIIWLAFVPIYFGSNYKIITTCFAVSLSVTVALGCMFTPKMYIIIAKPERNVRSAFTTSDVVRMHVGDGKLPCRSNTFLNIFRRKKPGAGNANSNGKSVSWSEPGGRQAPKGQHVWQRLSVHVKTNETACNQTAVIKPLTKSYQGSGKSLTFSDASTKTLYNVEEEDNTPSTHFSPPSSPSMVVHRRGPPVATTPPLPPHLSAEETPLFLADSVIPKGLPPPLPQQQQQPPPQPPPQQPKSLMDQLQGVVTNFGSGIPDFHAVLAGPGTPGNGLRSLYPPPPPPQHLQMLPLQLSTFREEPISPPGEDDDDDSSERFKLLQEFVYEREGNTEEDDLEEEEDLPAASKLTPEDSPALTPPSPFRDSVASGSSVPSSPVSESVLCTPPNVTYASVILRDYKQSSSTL

In the case of Cn1nc(-c2ccnn2C)cc1CNC(=O)c1cc(-c2ccco2)ccc1Cl [Compound 19d, 2-Chloro-N-((1,2′-dimethyl-1H,2’H-[3,3′-bipyrazol]-5-yl)methyl)-5-(furan-2-yl)benzamide], the pEC50 (mGlu1) was 7.57, the “mouse mGlu1 Glumax” value (mGlu1) was 89% and the “mouse mGlu1 pEC50” value (mGlu1) was 7.59 ± 0.07. It also gave an inhibition at 10 µM (Adrenergic beta 2) of -1%, an inhibition at 10 µM (Adenosine A3) of 23% and an inhibition at 10 µM (CCK1 (CCKA)) of 7%. It also gave an inhibition at 10 µM (BZD (peripheral)) of 96%, an inhibition at 10 µM (CB1) of 0% and an inhibition at 10 µM (Adenosine A2A) of -1%. For the same compound, the inhibition at 10 µM (Adrenergic beta 1) was 1%, the inhibition at 10 µM (AT2) was 2% and the inhibition at 10 µM (AT1) was -1%. For the same compound, the “% Inhibition at 10 µM” value (BZD (central)) was 5%, the inhibition at 10 µM (B2) was 7% and the inhibition at 10 µM (CGRP) was 1%. For the same compound, the “Br[unbound]” value (rat IP PBL study) was 68 nM, the hydrolytic stability (hydrolytic stability; acidic, pH 2.2) was “hydrolytically stable” and the hydrolytic stability (hydrolytic stability; neutral, pH 7.4) was “hydrolytically stable”. The inhibition at 10 µM (MT1 (ML1A)) was 17%, the inhibition at 10 µM (NK2) was 11% and the inhibition at 10 µM (NK3) was -8%. The inhibition at 10 µM (5-HT3) was 2%, the inhibition at 10 µM (D2S) was 6% and the inhibition at 10 µM (D1) was 3%. The inhibition at 10 µM (5-HT2A) was -1%, the inhibition at 10 µM (CCR1) was -1% and the “% Inhibition at 10 µM” value (P2X) was -6%. The inhibition at 10 µM (D4.4) was 22%, the inhibition at 10 µM (GAL2) was -9% and the inhibition at 10 µM (CXCR2 (IL-8B)) was 3%. The inhibition at 10 µM (ETB) was -27%, the inhibition at 10 µM (M3) was 2% and the inhibition at 10 µM (PAC1 (PACAP)) was -2%. The inhibition at 10 µM (PPARgamma) was 2%, the inhibition at 10 µM (D5) was -1% and the inhibition at 10 µM (5-HT5a) was -2%. For the same compound, the inhibition at 10 µM (NTS1 (NT1)) was -1%, the inhibition at 10 µM (NK1) was 46% and the inhibition at 10 µM (GAL1) was -4%. For the same compound, the inhibition at 10 µM (M4) was 11%, the “human P-gp substrate, in words” value (human P-gp) was “not a human P-gp substrate” and the Papp (P-gp (MDR1)) was 73 ×10⁻⁶ cm/s.
